# Laboratory results: ChEMBL document CHEMBL1201862, “PubChem BioAssay data set” (2004)
# Activity calls are given as the source filed them.
# Key:
# [1] = target: G-protein coupled receptor 183 (Homo sapiens, UniProt P32249); experiment: SAR confirmation of small molecule antagonists of the EBI2 receptor via a luminescent beta-arrestin assa.; assay type: functional
# [2] = Glucagon-like peptide 1 release potency, NCI-H716 cell line, dose-response, half-maximal inhibitory concentration (AID 1117344); assay type: functional, cell-based
# [3] = half-maximal inhibitory concentration for glucagon-like peptide-1 release, STC-1 cell line, dose-response (AID 1117345); assay type: functional, cell-based
# [4] = Luminescence-based cell-based high throughput dose response assay to identify activators of the DAF-12 from the parasite S. stercoralis (ssDAF-12).; assay type: functional
# [5] = target: T1, Oxysterols receptor LXR-beta (Homo sapiens, UniProt P55055); experiment: LXR agonists, Gal4 luciferase reporter, dose response, counter-screen for ssDAF-12 agonist project, cell-based, luminescence, HEK293, S. stercoralis campaign (AID 720737); assay type: functional; details: read-out: IC50 (the source's name)
# T1 sequence (P55055 whole entry): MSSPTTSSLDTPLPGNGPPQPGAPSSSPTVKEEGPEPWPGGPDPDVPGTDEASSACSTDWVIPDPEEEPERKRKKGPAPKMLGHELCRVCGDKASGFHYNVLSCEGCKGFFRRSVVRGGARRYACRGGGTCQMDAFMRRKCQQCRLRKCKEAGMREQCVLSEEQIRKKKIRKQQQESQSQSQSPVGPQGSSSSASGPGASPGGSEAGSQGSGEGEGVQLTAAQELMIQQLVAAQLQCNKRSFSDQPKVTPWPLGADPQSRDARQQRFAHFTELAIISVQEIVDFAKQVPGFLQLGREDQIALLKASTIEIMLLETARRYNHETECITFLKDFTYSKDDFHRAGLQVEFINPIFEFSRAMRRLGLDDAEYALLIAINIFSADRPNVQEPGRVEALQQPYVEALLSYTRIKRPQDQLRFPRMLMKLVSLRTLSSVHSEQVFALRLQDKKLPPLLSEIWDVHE
# [6] = HepG2 cell cytotoxicity, dose response, cytotoxicity control, ATP luminescence, cherry-pick, activator set 2 (AID 1053143); assay type: functional, cell-based
# [7] = target: T1, Oxysterols receptor LXR-beta; assay type: functional, cell-based
# cells [8] = experiment: cells
# cells [9] = assay type: functional, cell-based; details: INS-1E
# [10] = Dose-response inhibition of insulin secretion in a rat insulinoma line at 5 mM glucose (AID 1117331); assay type: functional, cell-based; details: INS-1E
# Sequence of G-protein coupled receptor 183 (P32249 whole entry): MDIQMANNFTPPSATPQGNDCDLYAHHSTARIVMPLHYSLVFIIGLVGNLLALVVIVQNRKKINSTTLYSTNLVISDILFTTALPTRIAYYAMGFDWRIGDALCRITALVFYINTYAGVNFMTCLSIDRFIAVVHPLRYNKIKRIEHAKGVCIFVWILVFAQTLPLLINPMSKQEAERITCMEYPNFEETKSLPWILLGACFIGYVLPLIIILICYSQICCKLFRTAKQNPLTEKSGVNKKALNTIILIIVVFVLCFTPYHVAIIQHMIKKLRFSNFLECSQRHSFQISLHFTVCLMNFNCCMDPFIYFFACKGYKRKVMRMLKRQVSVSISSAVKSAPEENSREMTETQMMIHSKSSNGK
smiles,measurement,setting,value
O=C(/C=C/c1ccccc1)N1CCN(Cc2ccc(F)cc2)CC1,IC50,[1],0.0216 µM (active)
CC(=O)NO [ACETOHYDROXAMIC ACID],IC50,[2],> 40 µM (inactive)
same,IC50,[3],> 40 µM (inactive)
Cc1ccccc1C(=O)N/N=C1/SCC(=O)N1Cc1ccccc1,IC50,[4],> 67.5 µM (inactive)
same,EC50,[5],> 67.5 µM (inactive)
Oc1ccccc1-c1cc(-c2ccccc2)[nH]n1,AC50,[6],26 µM (active)
same,EC50,[7],> 67.4 µM (inactive)
same,IC50,[4],> 67.4 µM (inactive)
same,EC50,[5],> 67.4 µM (inactive)
same,EC50,cells [8],> 67.4 µM (inactive)
CN1CCCN(C(c2ccccc2)c2ccc(Cl)cc2)CC1 (configuration not stated) [HOMOCHLORCYCLIZINE],IC50,cells [9],> 33.3 µM (inactive)
same,IC50,[10],> 3.7 µM (inactive)
